Here are results for 5 molecules from patent US20260116920A1, “HUMAN TRANSFERRIN RECEPTOR BINDING PEPTIDE” (PEPTIDREAM INC., priority 2021, published 2026).

Starred links: 1 amine or outer side, 2 acyl side, 3 side chain; linkers in the order of their positions; H or OH if unused. Positions of bridges follow the written chain, without caps; N, C: chain ends. Non-standard residues stand in square brackets, D forms with d. Residues, ends and D or L forms follow the SMILES beside them. Groups on a side chain read outwards from the residue. *: point of attachment. Trp(1-CH2COOH) = N[C@@H](Cc1cn(CC(=O)O)c2ccccc12)C(=O)O; Phe(3-COOH) = N[C@@H](Cc1cccc(C(=O)O)c1)C(=O)O; NMePhe(3-Cl) = CN[C@@H](Cc1cccc(Cl)c1)C(=O)O; Piperazinyl(4-CH2COOH) = O=C(O)CN1CCN(*)CC1; NMeY = CN[C@@H](Cc1ccc(O)cc1)C(=O)O; NH(CH2CH2O)4Me = COCCOCCOCCOCCN*; PEG4 = NCCOCCOCCOCCOCCC(=O)O; Carboxymethyl = O=C(O)C*; CO = O=C([*:1])[*:2]; X4 = COCC(COC)N*

T1 sequence (P02786 89-760 limits assumed): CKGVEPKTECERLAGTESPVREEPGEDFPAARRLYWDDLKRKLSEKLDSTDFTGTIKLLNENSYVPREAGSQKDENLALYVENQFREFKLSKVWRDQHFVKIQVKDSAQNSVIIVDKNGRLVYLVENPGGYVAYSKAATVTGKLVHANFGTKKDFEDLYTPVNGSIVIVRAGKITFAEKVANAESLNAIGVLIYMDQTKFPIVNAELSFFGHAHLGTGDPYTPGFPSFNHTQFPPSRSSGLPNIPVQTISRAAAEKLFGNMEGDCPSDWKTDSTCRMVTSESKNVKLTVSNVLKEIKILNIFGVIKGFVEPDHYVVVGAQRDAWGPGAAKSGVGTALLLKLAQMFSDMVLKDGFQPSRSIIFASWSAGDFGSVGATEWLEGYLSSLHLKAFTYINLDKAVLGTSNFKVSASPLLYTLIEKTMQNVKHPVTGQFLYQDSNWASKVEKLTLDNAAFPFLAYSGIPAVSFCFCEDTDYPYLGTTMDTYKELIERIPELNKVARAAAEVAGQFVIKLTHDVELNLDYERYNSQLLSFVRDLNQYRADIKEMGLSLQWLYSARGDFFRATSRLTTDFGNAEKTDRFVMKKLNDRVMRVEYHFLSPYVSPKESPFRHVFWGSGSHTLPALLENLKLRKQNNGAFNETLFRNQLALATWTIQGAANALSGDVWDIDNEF

The experiment concerns the target T1, human transferrin receptor (hTfR) (Homo sapiens, UniProt P02786).
T1 construct: made in house
In words: Evaluation of molecular interaction between transferrin receptor (hTfR) and peptide using surface plasmon resonance (SPR). The following applies: surface plasmon resonance, binding to hTfR; KD class symbol; read-out: SPR (KD value). The format is binding. In short, it runs like this: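 Using a Ni-NTA surface bearing covalently coupled hTfR dimer, peptides were tested at five concentrations from 5 to 100 nM. Running buffer was 10 mM HEPES pH 8.0, 150 mM NaCl, 0.05% Tween 20, 0.1% BSA, 1.0% DMSO; single-cycle sensorgrams were least-squares fitted for KD.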
For orientation: In SPR one partner is held on a chip, and binding of the other changes the refractive index at the surface.
With `CC[C@H](C)[C@@H]1NC(=O)[C@H](Cc2ccc(OCC(=O)O)cc2)NC(=O)[C@H](Cc2ccc(O)cc2)NC(=O)[C@H](CC(N)=O)NC(=O)[C@H](Cc2c[nH]c3ccccc23)NC(=O)[C@H](C(C)C)NC(=O)[C@H](Cc2cccc(Cl)c2)N(C)C(=O)[C@H](C(C)C)NC(=O)[C@H](C)NC(=O)CSC[C@@H](C(=O)NCCOCCOCCOCCOCCC(N)=O)NC(=O)[C@H](Cc2ccc(O)cc2)N(C)C(=O)[C@H](Cc2ccccc2)NC(=O)[C@H](CCCNC(=N)N)NC(=O)[C@H](CCC(=O)NCCOCCOCCOCCOCCOCCOCCOCCOC)NC(=O)[C@H]([C@@H](C)CC)NC1=O` [compound 112], the Kd was below 1 nM. The same measure for `CC[C@H](C)[C@@H]1NC(=O)[C@H](Cc2ccc(OCC(=O)O)cc2)NC(=O)[C@H](Cc2ccc(O)cc2)NC(=O)[C@H](CC(N)=O)NC(=O)[C@H](Cc2c[nH]c3ccccc23)NC(=O)[C@H](C(C)C)NC(=O)[C@H](Cc2cccc(Cl)c2)N(C)C(=O)[C@H](C(C)C)NC(=O)[C@H](C)NC(=O)CSC[C@@H](C(=O)NCCOCCOCCOCCOCCC(N)=O)NC(=O)[C@H](Cc2ccc(O)cc2)N(C)C(=O)[C@H](Cc2ccccc2)NC(=O)[C@H](CCCNC(=N)N)NC(=O)[C@H](CCC(=O)NCCOCCOCCOCCOC)NC(=O)[C@H]([C@@H](C)CC)NC1=O` [compound 113]: 1 to 100 nM; for `CC[C@H](C)[C@@H]1NC(=O)[C@H](Cc2ccc(OCC(=O)O)cc2)NC(=O)[C@H](Cc2ccc(O)cc2)NC(=O)[C@H](CC(N)=O)NC(=O)[C@H](Cc2c[nH]c3ccccc23)NC(=O)[C@H](C(C)C)NC(=O)[C@H](Cc2cccc(Cl)c2)N(C)C(=O)[C@H](C(C)C)NC(=O)[C@H](C)NC(=O)CSC[C@@H](C(=O)NCCOCCOCCOCCOCCC(N)=O)NC(=O)[C@H](Cc2ccc(O)cc2)N(C)C(=O)[C@H](Cc2cccc(C(=O)O)c2)NC(=O)[C@H](CCCNC(=N)N)NC(=O)[C@H](CCC(=O)NC(COC)COC)NC(=O)[C@H]([C@@H](C)CC)NC1=O` [compound 114] ({CH2CO}-AV[NMePhe(3-Cl)]VWNYY(Carboxymethyl)IIE(X4)R[Phe(3-COOH)][NMeY]C[PEG4]-NH2; thioether N-15): below 1 nM. The same measure for `CC[C@H](C)[C@@H]1NC(=O)[C@H](Cc2ccc(OCC(=O)O)cc2)NC(=O)[C@H](Cc2ccc(O)cc2)NC(=O)[C@H](CC(N)=O)NC(=O)[C@H](Cc2cn(CC(=O)O)c3ccccc23)NC(=O)[C@H](C(C)C)NC(=O)[C@H](Cc2cccc(Cl)c2)N(C)C(=O)[C@H](C(C)C)NC(=O)[C@H](C)NC(=O)CSC[C@@H](C(=O)NCCOCCOCCOCCOCCC(N)=O)NC(=O)[C@H](Cc2ccc(O)cc2)N(C)C(=O)[C@H](Cc2ccccc2)NC(=O)[C@H](CCCCNC(=O)N2CCN(CC(=O)O)CC2)NC(=O)[C@H](CCC(=O)NCCOCCOCCOCCOC)NC(=O)[C@H]([C@@H](C)CC)NC1=O` [compound 115] ({CH2CO}-AV[NMePhe(3-Cl)]V[Trp(1-CH2COOH)]NYY(Carboxymethyl)IIE(NH(CH2CH2O)4Me)K([CO-Piperazinyl(4-CH2COOH)])F[NMeY]C[PEG4]-NH2; thioether N-15): 1 to 100 nM; for `CC[C@H](C)[C@@H]1NC(=O)[C@H](Cc2ccc(OCC(=O)O)cc2)NC(=O)[C@H](Cc2ccc(O)cc2)NC(=O)[C@H](CC(N)=O)NC(=O)[C@H](Cc2c[nH]c3ccccc23)NC(=O)[C@H](C(C)C)NC(=O)[C@H](Cc2cccc(Cl)c2)N(C)C(=O)[C@H](C(C)C)NC(=O)[C@H](C)NC(=O)CSC[C@@H](C(=O)NCCOCCOCCOCCOCCC(N)=O)NC(=O)[C@H](Cc2ccc(O)cc2)N(C)C(=O)[C@H](Cc2ccccc2)NC(=O)[C@H](CCCCNC(=O)N2CCN(CC(=O)O)CC2)NC(=O)[C@H](CCC(=O)NCCOCCOCCOCCOC)NC(=O)[C@H]([C@@H](C)CC)NC1=O` [compound 116] ({CH2CO}-AV[NMePhe(3-Cl)]VWNYY(Carboxymethyl)IIE(NH(CH2CH2O)4Me)K([CO-Piperazinyl(4-CH2COOH)])F[NMeY]C[PEG4]-NH2; thioether N-15): 1 to 100 nM.

Broadly, the Kd is the constant that tells how readily two partners part at equilibrium.
